Patent publication US9738634B2, “Heterocyclic amide compound and herbicide” (SYNGENTA PARTICIPATIONS AG, priority 2013, dated 2017)

Assays:
Format in all cases: in vivo
barnyard grass [1] = assay: Test Example 1: weedkilling efficacy, preemergent weed treatment in the submerged state; A: barnyard grass; settings: treatment dosage 320 g/ha
Summary of the method: (§1)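 Submerged pre-emergence treatment, water-surface application of compound emulsion at g/ha dosages; 4 cm flooded alluvial soil, weeds sown and 2.5-leaf rice transplanted same day. Rated after 3 weeks, greenhouse.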

bulrush [2] = assay: Test Example 1: weedkilling efficacy, preemergent weed treatment in the submerged state; B: bulrush; settings: treatment dosage 320 g/ha
Summary of the method: as §1

oval-leafed pondweed [3] = assay: Test Example 1: weedkilling efficacy, preemergent weed treatment in the submerged state; C: oval-leafed pondweed; settings: treatment dosage 320 g/ha
Summary of the method: as §1

transplanted rice = assay: Test Example 1: preemergent weed treatment in the submerged state, effect on crop; a: transplanted rice; settings: treatment dosage 320 g/ha
Summary of the method: as §1

barnyard grass [4] = assay: Test Example 2: weedkilling efficacy, growth period weed treatment in the submerged state; A: barnyard grass; settings: treatment dosage 320 g/ha
Summary of the method: (§2)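 Seedlings at 1-2 leaves in 4 cm-deep submerged alluvial soil received emulsion formulations on the water surface, dosed per hectare; effects were judged 3 weeks on.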

bulrush [5] = assay: Test Example 2: weedkilling efficacy, growth period weed treatment in the submerged state; B: bulrush; settings: treatment dosage 320 g/ha
Summary of the method: as §2

oval-leafed pondweed [6] = assay: Test Example 2: weedkilling efficacy, growth period weed treatment in the submerged state; C: oval-leafed pondweed; settings: treatment dosage 320 g/ha
Summary of the method: as §2

crabgrass = assay: Test Example 3: weedkilling efficacy through soil treatment; D: crabgrass; settings: soil treatment, treatment dosage 320 g/ha
Summary of the method: (§3)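 Crop and weed responses were judged three weeks after a uniform surface spray of the water-diluted emulsion at the given g/ha rate. Seeds sat beneath about 1.5 cm of sterilized diluvial soil, and boxes stood in a greenhouse at 25 to 30° C.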

green foxtail = assay: Test Example 3: weedkilling efficacy through soil treatment; E: green foxtail; settings: soil treatment, treatment dosage 320 g/ha
Summary of the method: as §3

barnyard grass [7] = assay: Test Example 3: weedkilling efficacy through soil treatment; F: barnyard grass; settings: soil treatment, treatment dosage 320 g/ha
From the text: Weedkilling Efficacy Test Through Soil Treatment
Sterilized diluvial soil was introduced into 21 cm long, 13 cm wide, 7 cm deep plastic boxes, and seeds of crabgrass, green foxtail, barnyard grass, wild oat, black-grass, Italian ryegrass, common wind-grass, Indian mallow, redroot pigweed, fig-leafed goosefoot, chickweed, catchweed, birds-eye speedwell, corn, soybean, rice, wheat, beet and rapeseed were each spot-sown, and covered with about 1.5 cm of soil. Next, emulsions of compounds of the present invention prepared according to compounding example 2 were diluted with water to give the specified dosages, and applied uniformly onto the soil surface with a small sprayer. The plants were grown by placing the plastic boxes in a greenhouse at 25 to 30° C., and 3 weeks after the pesticide treatment the effect on each type of plant was investigated on the basis of the assessment criteria of test example 1.
A: barnyard grass, B: bulrush, C: oval-leafed pondweed, D: crabgrass, E: green foxtail, F: barnyard grass, G: wild oat, H: black-grass, I: Italian ryegrass, J: common wind-grass, K: Indian mallow, L: redroot pigweed, M: fig-leafed goosefoot, N: chickweed, O: catchweed, p: birds-eye speedwell, a: transplanted rice, b: directly sown rice, c: corn, d: soybean, e: wheat, f: beet, g: rapeseed
Further, pesticide dosage (g/ha) indicates the concentration regulated such that treatment was with only the stated number of grams (g), when calculated per hectare (ha).

wild oat = assay: Test Example 3: weedkilling efficacy through soil treatment; G: wild oat; settings: soil treatment, treatment dosage 320 g/ha
Summary of the method: as §3

black-grass = assay: Test Example 3: weedkilling efficacy through soil treatment; H: black-grass; settings: soil treatment, treatment dosage 320 g/ha
Summary of the method: as §3

Italian ryegrass = assay: Test Example 3: weedkilling efficacy through soil treatment; I: Italian ryegrass; settings: soil treatment, treatment dosage 320 g/ha
Summary of the method: as §3

common wind-grass = assay: Test Example 3: weedkilling efficacy through soil treatment; J: common wind-grass; settings: soil treatment, treatment dosage 320 g/ha
Summary of the method: as §3

Indian mallow = assay: Test Example 3: weedkilling efficacy through soil treatment; K: Indian mallow; settings: soil treatment, treatment dosage 320 g/ha
Summary of the method: as §3

redroot pigweed = assay: Test Example 3: weedkilling efficacy through soil treatment; L: redroot pigweed; settings: soil treatment, treatment dosage 320 g/ha
Summary of the method: as §3

fig-leafed goosefoot = assay: Test Example 3: weedkilling efficacy through soil treatment; M: fig-leafed goosefoot; settings: soil treatment, treatment dosage 320 g/ha
Summary of the method: as §3

chickweed = assay: Test Example 3: weedkilling efficacy through soil treatment; N: chickweed; settings: soil treatment, treatment dosage 320 g/ha
Summary of the method: as §3

birds-eye speedwell = assay: Test Example 3: weedkilling efficacy through soil treatment; p: birds-eye speedwell; settings: soil treatment, treatment dosage 320 g/ha
Summary of the method: as §3

directly sown rice = assay: Test Example 3: soil treatment, effect on crop; b: directly sown rice; settings: soil treatment, treatment dosage 320 g/ha
Summary of the method: as §3

corn = assay: Test Example 3: soil treatment, effect on crop; c: corn; settings: soil treatment, treatment dosage 320 g/ha
Summary of the method: as §3

soybean = assay: Test Example 3: soil treatment, effect on crop; d: soybean; settings: soil treatment, treatment dosage 320 g/ha
Summary of the method: as §3

wheat = assay: Test Example 3: soil treatment, effect on crop; e: wheat; settings: soil treatment, treatment dosage 320 g/ha
Summary of the method: as §3

beet = assay: Test Example 3: soil treatment, effect on crop; f: beet; settings: soil treatment, treatment dosage 320 g/ha
Summary of the method: as §3

rapeseed = assay: Test Example 3: soil treatment, effect on crop; g: rapeseed; settings: soil treatment, treatment dosage 320 g/ha
Summary of the method: as §3

SMILES | A: barnyard grass, weed kill grade (barnyard grass [1]) | B: bulrush, weed kill grade (bulrush [2]) | C: oval-leafed pondweed, weed kill grade (oval-leafed pondweed [3]) | a: transplanted rice, effect on crop grade (transplanted rice) | A (barnyard grass) weedkilling efficacy grade (barnyard grass [4]) | B (bulrush) weedkilling efficacy grade (bulrush [5]) | C (oval-leafed pondweed) weedkilling efficacy grade (oval-leafed pondweed [6]) | D: crabgrass, weedkilling efficacy grade (crabgrass) | E: green foxtail, weedkilling efficacy grade (green foxtail) | F: barnyard grass, weedkilling efficacy grade (barnyard grass [7]) | G: wild oat, weedkilling efficacy grade (wild oat) | H: black-grass, weedkilling efficacy grade (black-grass) | I: Italian ryegrass, weedkilling efficacy grade (Italian ryegrass) | J: common wind-grass, weedkilling efficacy grade (common wind-grass) | K: Indian mallow, weedkilling efficacy grade (Indian mallow) | L: redroot pigweed, weedkilling efficacy grade (redroot pigweed) | M: fig-leafed goosefoot, weedkilling efficacy grade (fig-leafed goosefoot) | N: chickweed, weedkilling efficacy grade (chickweed) | P: birds-eye speedwell, weedkilling efficacy grade (birds-eye speedwell) | b: directly sown rice, effect on crop grade (directly sown rice) | other results
CC(C)(C(=O)Nc1cc(I)ccn1)N1COCN(c2ccccc2)C1=O [A-2-10] | 5 (weed kill ratio 90% or more, (practically complete withering)) | 5 (weed kill ratio 90% or more, (practically complete withering)) | 5 (weed kill ratio 90% or more, (practically complete withering)) | 1 (weed kill ratio 5% or more, less than 20%) | 5 (weed kill ratio 90% or more, (practically complete withering)) | 5 (weed kill ratio 90% or more, (practically complete withering)) | 5 (weed kill ratio 90% or more, (practically complete withering)) | 5 (weed kill ratio 90% or more, (practically complete withering)) | 5 (weed kill ratio 90% or more, (practically complete withering)) | 5 (weed kill ratio 90% or more, (practically complete withering)) | 2 (weed kill ratio 20% or more, less than 40%) | 5 (weed kill ratio 90% or more, (practically complete withering)) | 5 (weed kill ratio 90% or more, (practically complete withering)) | 5 (weed kill ratio 90% or more, (practically complete withering)) | 0 (weed kill ratio 5% or less (practically no effect)) | 1 (weed kill ratio 5% or more, less than 20%) | 4 (weed kill ratio 70% or more, less than 90%) | 3 (weed kill ratio 40% or more, less than 70%) | 4 (weed kill ratio 70% or more, less than 90%) | 4 (weed kill ratio 70% or more, less than 90%) | c: corn, effect on crop grade (corn): 0 (weed kill ratio 5% or less (practically no effect)); d: soybean, effect on crop grade (soybean): 0 (weed kill ratio 5% or less (practically no effect)); e: wheat, effect on crop grade (wheat): 0 (weed kill ratio 5% or less (practically no effect)); f: beet, effect on crop grade (beet): 3 (weed kill ratio 40% or more, less than 70%); g: rapeseed, effect on crop grade (rapeseed): 3 (weed kill ratio 40% or more, less than 70%)
CC(C)(C(=O)Nc1cc(OC(F)F)cc(Cl)n1)N1COCN(c2ccccc2)C1=O [A-2-34] | 5 (weed kill ratio 90% or more, (practically complete withering)) | 5 (weed kill ratio 90% or more, (practically complete withering)) | 5 (weed kill ratio 90% or more, (practically complete withering)) | 3 (weed kill ratio 40% or more, less than 70%) | 5 (weed kill ratio 90% or more, (practically complete withering)) | 5 (weed kill ratio 90% or more, (practically complete withering)) | 5 (weed kill ratio 90% or more, (practically complete withering)) | 5 (weed kill ratio 90% or more, (practically complete withering)) | 5 (weed kill ratio 90% or more, (practically complete withering)) | 5 (weed kill ratio 90% or more, (practically complete withering)) | 5 (weed kill ratio 90% or more, (practically complete withering)) | 5 (weed kill ratio 90% or more, (practically complete withering)) | 5 (weed kill ratio 90% or more, (practically complete withering)) | 5 (weed kill ratio 90% or more, (practically complete withering)) | 0 (weed kill ratio 5% or less (practically no effect)) | 0 (weed kill ratio 5% or less (practically no effect)) | 4 (weed kill ratio 70% or more, less than 90%) | 4 (weed kill ratio 70% or more, less than 90%) | 4 (weed kill ratio 70% or more, less than 90%) | 4 (weed kill ratio 70% or more, less than 90%) | c: corn, effect on crop grade (corn): 0 (weed kill ratio 5% or less (practically no effect)); d: soybean, effect on crop grade (soybean): 0 (weed kill ratio 5% or less (practically no effect)); e: wheat, effect on crop grade (wheat): 0 (weed kill ratio 5% or less (practically no effect)); f: beet, effect on crop grade (beet): 4 (weed kill ratio 70% or more, less than 90%); g: rapeseed, effect on crop grade (rapeseed): 1 (weed kill ratio 5% or more, less than 20%)
Cc1cc(Cl)cc(NC(=O)C(C)(C)N2COCN(c3ccccc3)C2=O)n1 [A-2-25] | 5 (weed kill ratio 90% or more, (practically complete withering)) | 5 (weed kill ratio 90% or more, (practically complete withering)) | 5 (weed kill ratio 90% or more, (practically complete withering)) | 3 (weed kill ratio 40% or more, less than 70%) | 5 (weed kill ratio 90% or more, (practically complete withering)) | 5 (weed kill ratio 90% or more, (practically complete withering)) | 5 (weed kill ratio 90% or more, (practically complete withering)) | 5 (weed kill ratio 90% or more, (practically complete withering)) | 5 (weed kill ratio 90% or more, (practically complete withering)) | 5 (weed kill ratio 90% or more, (practically complete withering)) | 4 (weed kill ratio 70% or more, less than 90%) | 5 (weed kill ratio 90% or more, (practically complete withering)) | 5 (weed kill ratio 90% or more, (practically complete withering)) | 5 (weed kill ratio 90% or more, (practically complete withering)) | 5 (weed kill ratio 90% or more, (practically complete withering)) | 4 (weed kill ratio 70% or more, less than 90%) | 4 (weed kill ratio 70% or more, less than 90%) | 4 (weed kill ratio 70% or more, less than 90%) | 5 (weed kill ratio 90% or more, (practically complete withering)) | 5 (weed kill ratio 90% or more, (practically complete withering)) | c: corn, effect on crop grade (corn): 0 (weed kill ratio 5% or less (practically no effect)); d: soybean, effect on crop grade (soybean): 0 (weed kill ratio 5% or less (practically no effect)); e: wheat, effect on crop grade (wheat): 0 (weed kill ratio 5% or less (practically no effect)); f: beet, effect on crop grade (beet): 4 (weed kill ratio 70% or more, less than 90%); g: rapeseed, effect on crop grade (rapeseed): 3 (weed kill ratio 40% or more, less than 70%)
